Assay [1] deals with regulated intramembrane proteolysis (RIP) of β1 in 1610β1 cells. The experiment in a line: Western blot of full-length β1 and C-terminal fragment (regulated intramembrane proteolysis) in 1610β1 cells. Type of assay: cell-based, Chinese hamster. To be noted: for CTF levels on immunoblots, peptide alone: without DAPT. On the procedure: (FIG. 8A) Representative Western blot showing 0.1% DMSO, 50 μM βadp1, 1 μM DAPT, and 50 μM+1 μM DAPT treatments at 6 hours, 24 hours, and 48 hours of treatment. Cells were plated and treated simultaneously, and then lysate was collected at the indicated 6, 24, or 48 hours. Detection of the β1 subunit was done using a c-terminal antibody “Na Channel β1 Subunit (D4Z2N) Rabbit mAb #13950” (Cell Signaling Technologies). This allowed for labeling of both the full length β1 protein (37 kD) and the C-terminal fragment (CTF) (19 kD). […] (FIG. 8B) Quantification of the 37 kD full-length β1 protein at 6, 24, and 48 hours. All results are normalized to DMSO treatment at each timepoint and then shown as a ratio of DAPT+βadp1/DAPT to account for the DAPT treatment in each. […] (FIG. 8C) Quantification of the 19 kD CTF of β1. All results are normalized to DMSO treatment at each timepoint and then shown as a ratio of DAPT+βadp1/DAPT to account for the DAPT treatment in each.
β1 abundance was further examined using Western blotting (WB) at time points of 6, 24, and 48 hours after initial βadp1 treatment. Cells were plated in 35 mm cell culture dishes and treated with 50 μM βadp1 or βS2L solubilized in a final concentration of 0.1% DMSO at the time of plating. The control was DMSO vehicle. To determine whether βadp1 affects the RIP of β1, cells were also treated with 1 μM DAPT, an inhibitor of γ-secretase, to cause an accumulation of the intermediate substrate in the RIP of β1, the CTF. Whole cell lysate was collected and run on stain free gels and transferred to a Polyvinylidene difluoride (PVDF) membrane. Membranes were labeled with an antibody against the c-terminal domain of β1 (Cell Signaling Technologies).
β1 has been reported to undergo a process of […] intramembrane proteolysis (RIP) by BACE1 and γ-secretase, ultimately resulting in the production of a soluble intracellular domain (ICD) that is translocated to the nucleus, with correlated effects on gene transcription. Applicant sought to determine if the β1 targeting peptides affect the RIP process in 1610β1 cells and whether any effect relates to changes in the distribution and abundance of β1 immunolabeling we observed in this model. First, to confirm that β1 underwent RIP in 1610β1 cells, Applicant treated cells with the y-secretase inhibitor DAPT. In the presence of DAPT, it was noted that the 19 kD Carboxyl-Terminal Fragment (CTF) accumulated in Western blots from cells sampled at 6, 24 and 48 hours following initiation of treatment, similar to results published by others in CHL cells and MDA-MB-231 breast cancer cells (FIG. 12A). Without DAPT treatment the 19 kD CTF was virtually non-detectable at any of the time points sampled (FIG. 12A). Next, Applicant co-treated cells with DAPT in the presence of βadp1 or βS2L. […]
(In general: Immunoblotting shows a protein as a band on a membrane.)

Assay [2] has as its system 1610β1 cells (β1/SCN1B-mediated cell adhesion). The assay is described as follows: Electric cell-substrate impedance sensing (ECIS) of cell adhesion in 1610β1 monolayers. Type of assay: cell-based, Chinese hamster. The following applies: for resistance compared to vehicle over the entire time course / resistance compared to DMSO vehicle at 5 hours / resistance compared to DMSO vehicle at (up to) 20 hours / resistance compared to DMSO vehicle at 40 hours: 10 μM; for resistance compared to vehicle over the entire time course: 40 hour time course; for resistance compared to DMSO vehicle at 5 hours / resistance compared to DMSO vehicle at (up to) 20 hours / resistance compared to DMSO vehicle at 40 hours: single treatment at plating; for acute de-adhesion effects: dimerized peptides, ECIS time course. From the text:
FIGS. 3A-3E show βadp1 binding and identification of βadp1 derived smaller peptide fragments with similar function. […] Positive and negatively charged moieties on the adhesion surface of the β1 Ig loop are shown in red and blue (as represented in greyscale), respectively. […] Peptides towards the carboxyl terminus of βadp1, especially those incorporating hydrophobic leucine residues, show the most adhesion reducing activity. Based on the ECIS time course data, and predictions from molecular modeling of likely binding in the hydrophobic pocket β1/SCN1B Ig domain binding surface, the sequence LQLEED (SEQ ID NO: 4) was selected as a short peptide candidate drug molecule.
In this Example to evaluate the long term effects (effects after more than 2 hours post treatment) of βadp1 and derivatives on β1 cell adhesion, electric cell-substrate impedance sensing (ECIS) was employed. ECIS measures the impedance of electric current. 4000 Hz is the recommended frequency for measuring changes in impedance between cells, assaying intercellular adhesion levels, as mediated by β1. […] To assist in focusing on the active sequence of βadp1 used to create the other peptides in this disclosure, ECIS experiments were completed using multiple small sequences as shown in FIGS. 3A-3E. From this, and in combination with the in silico experiments, it was determined that LQLEED (SEQ ID NO: 4) was the optimal sequence. […] For the other dimerized peptides, ERF residues were included on the c-terminal end of the LQLEED (SEQ ID NO: 4) peptide because residue R85 in SCN1B is associated with atrial fibrillation. Cells were plated in 8 well plates lined with 40 electrodes and treated with a 10 μM concentration of βadp1 in a final concentration of 0.1% DMSO at the time of plating or DMSO vehicle.
βadp1 is a peptide mimetic of a 20 amino acid (aa) sequence from the immunoglobulin (Ig) domain of the voltage gated sodium channel (VGSC) β1 subunit involved in adhesive interactions. […] Applicant synthesized a dimerized variant of the 20 aa βadp1 (FIG. 1) and tested it in monolayers of 1610 Chinese Hamster Lung cells stably expressing the β1 subunit (1610ß1) using electric cell substrate impedance sensing (ECIS) to determine whether it acted as an agonist that promoted β1-mediated adhesion.

In assay [3] the test system is β1 protein (SCN1B) in 1610β1 cells. The experiment in a line: Confocal immunofluorescence of β1 abundance and Biotin-βadp1 uptake in 1610β1 cells. Type of assay: cell-based, Chinese hamster. The following applies: for upregulation of β1 protein 48 hours after treatment: 50 μM; for upregulation of β1 protein 48 hours after treatment / β1 abundance (immunolabeling) at 48 hours compared to DMSO treated cells: FIG. 7; for β1 abundance (immunolabeling) at 48 hours compared to DMSO treated cells: 10 μM; for upregulation of β1 protein 48 hours after treatment / β1 abundance (immunolabeling) at 48 hours compared to DMSO treated cells / β1 abundance at cell-cell borders / in the membrane: 48 hours; for β1 abundance at cell-cell borders / in the membrane: FIG. 7D-7E. The method, then:
Cells were then allowed to grow for 1-48 hours, after which they were fixed with 4% paraformaldehyde. […] White scale bar: 10 μm
FIGS. 7A-7D show 1610β1 cells treated for 48 hours with 10 μM concentrations of DMSO or βadp1 derived peptides (FIG. 7A) 0.1% DMSO, (FIG. 7B) βadp1, (FIG. 7C) LQLEED (SEQ ID NO: 4), (FIG. 7D) βS2L.
Next, the abundance of β1 protein was evaluated using confocal microscopy immunofluorescence (IF). 1610β1 cells were plated in 12 well plates on lysine coated coverslips and allowed to grow for 48 hours. Cells were then treated with a 50 μM concentration of βadp1, βS2L, βS2C, or LQLEED (SEQ ID NO: 4) or βadp1 conjugated with a Biotin molecule (B-βadp1) solubilized in a final concentration of 0.1% dimethyl sulfoxide (DMSO). Controls for the experiment were cells treated with only 0.1% DMSO vehicle. Cells were then fixed in 4% paraformaldehyde and stained with an antibody against the extracellular domain of β1 (Virginia Tech) and a streptavidin-Alexa647 (Invitrogen) conjugate to stain B-βadp1.
Applicant undertook immunolabeling studies to further probe the effect of the mimetic peptides on 1610β1 cells over time courses of up to 2 days. […] Prompted by this observation we examined what effects of 10 μM concentrations of LQLEED (SEQ ID NO: 4) and βS2L on β1 immunolabeling at or 48 hours over the same time course.

The test system of assay [4] is Isolated guinea pig hearts. The following applies: cited from earlier work.
Assay [5] deals with β1-mediated adhesion and gap junction-associated VGSC activity in cultured cells. To be noted: 1 to 2 hours; cited from earlier work.
The test system of assay [6] is parental cell line of 1610 cells expressing negligible levels of β1. The experiment in a line: ECIS in parental 1610 cells. Type of assay: cell-based, Chinese hamster.
Assay [7] has as its system 1610β1 cells (β1/SCN1B-mediated cell adhesion). The assay is described as follows: Electric cell-substrate impedance sensing (ECIS) of cell adhesion in 1610β1 monolayers. Type of assay: cell-based, Chinese hamster.
The mark [8] stands for this setting: isolated guinea pig hearts treated acutely.

“Also recorded” adds a separate entry of the source. Positions of bridges follow the written chain, without caps; N, C: chain ends. No end group written: not given here.

For `C[C@H](NC(=O)Cc1cc(F)cc(F)c1)C(=O)N[C@H](C(=O)OC(C)(C)C)c1ccccc1` [DAPT, reference compound], the “accumulation of the 19 kD C-terminal fragment (CTF) of β1 with DAPT” value in assay [1] (1 μM DAPT, 6, 24 and 48 hours, versus no DAPT) is “accumulation of the 19KD CTF; also recorded: accumulated”.

On to “CLQLEEDERF-G-LQLEEDERFC (CLQLEEDERFGLQLEEDERFC; disulfide 1-21 (inferred)) [βS2C, dimeric peptide with NT and CT cysteines, cyclizable via disulfide bonding]”, for which, in assay [2], the “resistance compared to vehicle over the entire time course” value is given as “increased resistance throughout the time course”, the “resistance compared to DMSO vehicle at (up to) 20 hours” value is on record as “increased resistance” and the acute de-adhesion effects entry is listed as “no acute de-adhesion effects detectable”. The “resistance compared to DMSO vehicle at 5 hours” value in assay [2] (5 hours) is “increase resistance; also recorded: significantly elevated over vehicle control”. The “upregulation of β1 protein 48 hours after treatment” value in assay [3] is recorded as “upregulation of β1 protein”.

For FVKILRYENEVLQLEEDERF [βadp1], the “resistance compared to DMSO vehicle at 5 hours” value in assay [2] (5 hours) is “decrease resistance”. For the same compound, in assay [2], the “resistance compared to DMSO vehicle at (up to) 20 hours” value was “decrease resistance; also recorded: significantly decreased resistance; also recorded: significant decreases in resistance” and the “resistance compared to DMSO vehicle at 40 hours” value is recorded as “no significant difference; also recorded: effects of βadp1 had reversed; also recorded: no longer significantly below those of controls”. Besides, the ECIS-assayed adhesion entry in assay [2] (10 and 100 μM treatments) is “significant decreases in ECIS-assayed adhesion”. The “normalized resistance of monolayers (marker of cell adhesion mediated by β1/SCN1B) relative to control” value in assay [2] (1610 cells exogenously expressing β1/SCN1B, over 20 hours, FIG. 3D) is recorded as “significantly reduces normalized resistance”. Further, the “β1 abundance (immunolabeling) at 48 hours compared to DMSO treated cells” value (“β1 abundance … compared to DMSO treated cells” below) in assay [3] was “increase in β1 abundance”. For the same compound, in assay [3] (cells monitored up to 48 hours from the initial treatment), the “β1 levels at 48 hours” value was “notably increased”. Besides, in assay [1] (inferred from CTF accumulation with DAPT), the “regulated intramembrane proteolysis (RIP) of β1” value was “increasing the amount of RIP that β1 undergoes; also recorded: increases the RIP of β1”. The “CTF levels on immunoblots, peptide alone” value in assay [1] is given as “Neither βadp1 or βS2L alone appeared to have consistent effects”. For the same compound, the “perinexal adhesion at early time-points” value in assay [4] (<2 hours) is listed as “perinexal de-adhesion”. Besides, in assay [4] (setting [8]), the conduction velocity result was “decreased conduction velocity” and the perinexus width entry was “widened perinexus”. In assay [5], the “gap junction-associated VGSC activity” value is “inhibits” and the β1-mediated adhesion entry was “inhibits β1-mediated adhesion”.

With “FVKILRYENEVLQLEEDERGFVKILRYENEVLQLEEDER [Db1-βadp1, dimerized version of βadp1 with a glycine linker]”, the “intercellular resistance in parental 1610 cells” value in assay [6] is “did not result in increased intercellular resistance”. Further, the “concentration dependence of the increase in resistance” value in assay [7] (100 μM versus 50 μM, 24 hours) is “concentration dependent effect; also recorded: higher for 100 μM Db1-βadp1 versus the 50 μM treatment”. Also, the “resistance compared to DMSO/vehicle control” value in assay [7] (Db1-βadp1 100 μM and 50 μM, over 24 hours of treatment, n=2, FIG. 4) is reported as “increased resistance”.

On to “LQLEED [short monomeric peptide towards the carboxyl terminus of βadp1]”, for which the “resistance compared to DMSO vehicle at 5 hours” value in assay [2] (5 hours) was “decrease resistance; also recorded: decreased levels of intercellular resistance”. Further, in assay [2], the “resistance compared to DMSO vehicle at (up to) 20 hours” value is recorded as “decreased resistance; also recorded: significant decreases in resistance”. Besides, in assay [3], the “β1 abundance … compared to DMSO treated cells” value is reported as “increase in β1 abundance; also recorded: appeared to increase” and the “β1 abundance at cell-cell borders / in the membrane” value was “occasional evidence of increased intensity of immunolabeling signal at cell borders”.

As for “LQLEEDERF-G-LQLEEDERF (LQLEEDERFGLQLEEDERF) [βS2L]”, in assay [2], the “resistance compared to vehicle over the entire time course” value was “increased resistance throughout the time course; also recorded: significantly increasing resistance”, the “resistance compared to DMSO vehicle at (up to) 20 hours” value is given as “increase resistance”, the “resistance compared to DMSO vehicle at 40 hours” value is recorded as “continues to increase resistance” and the acute de-adhesion effects entry was “no acute de-adhesion effects detectable”. In addition, in assay [2] (5 hours), the “resistance compared to DMSO vehicle at 5 hours” value is given as “increase resistance; also recorded: significantly elevated over vehicle control” and the “resistance relative to that after the LQLEED inhibitory monomer” value was 5-6 fold. Also, in assay [3], the “β1 abundance … compared to DMSO treated cells” value was “increase in β1 abundance; also recorded: cell-wide increases in β1 immunolabeling”, the “upregulation of β1 protein 48 hours after treatment” value is given as “upregulation of β1 protein” and the “β1 abundance at cell-cell borders / in the membrane” value is recorded as “increase the 1 abundance at cell-cell borders; also recorded: increase the β1 present in the membrane; also recorded: distinctive increase in signal at cell borders”. Moreover, the “CTF levels on immunoblots, peptide alone” value in assay [1] was “Neither βadp1 or βS2L alone appeared to have consistent effects”.

The values above are taken from patent US20250304649A1, “SCN1B MIMETIC PEPTIDES AND USES THEREOF” (Virginia Tech Intellectual Properties, Inc., priority 2022, published 2025).
